What all share (format): cell-based
One test concerns HECT E3 ligase. The experiment in a line: effect of HECT E3 ligase inhibition or knockdown on stress granule disassembly. To be noted: HECT E3 ligase inhibition or siRNA knockdown; FIG. 10, FIG. 11. An excerpt: With this information provided by the interactome mapping, E3 ligase inhibitor Heclin was employed to determine any effects on HECT E3 ligase function relative to stress granule disassembly, as illustrated in FIG. 9.

In the next test the test system is stress granule proteins. Kind of test: ubiquitination of stress granule proteins during granule formation. To be noted: HEK243T stably expressing HaloTag-G3BP1, 2 μM TAK243, FIG. 6. Here is the method: (§1) A protein-transition metal complex composite of FIG. 2 was prepared as follows. Cells (HEK243T stably expressing HaloTag-G3BP1) were seeded and grown to 95% confluency prior to labeling. The cells were incubated in DMEM media containing 5 μM of the with iridium catalyst of FIG. 2 for one hour. During this period, the iridium catalyst passes through the cell membranes and conjugates with the HaloTag-G3BP1 protein. The cells were then incubated in fresh DMEM media for one hour to remove or minimize noise from any unbound iridium catalyst.
(§2) A first portion of the Ir-catalyst loaded cells were subsequently transferred to DMEM media pre-dosed with 2 μM TAK243 and incubated for another hour. The remaining second portion (control) was dosed with the same volume of DMSO. The cells were stressed with […] NaAsO2 in DMEM for 30 minutes. Following stressing, the media was replaced with fresh DMEM for cell recovery at the indicated time. During the stressing period, the cells were dosed with protein labeling agent of 500 μM biotin-diazirine in the media 30 minutes prior to the individual time point of photolabeling. During photolabeling, the cells were subjected to 10 minutes of 450 nm blue light irradiation. FIG. 4 illustrates the foregoing testing protocol.
General proteomics preparation protocol was followed. 600 μg of total protein was loaded for streptavidin enrichment. […]

In a further test the test system is stress granules. Kind of test: stress granule disassembly after NaAsO2 stress. To be noted: HEK243T stably expressing HaloTag-G3BP1; 2 μM TAK243; stressed with 500 mM NaAsO2 for 30 minutes; FIG. 6. How it is done:
as §1, §2

In the case of `CCc1ccc(C=CC(=O)Nc2ccc(C(C)=O)cc2)o1` [Heclin], the stress granule disassembly entry in the test with HECT E3 ligase is recorded as “delays stress granule disassembly”.
Regarding `NS(=O)(=O)OC[C@H]1C[C@@H](Nc2ccnc3cc(-c4cccc(SC(F)(F)F)c4)nn23)[C@H](O)[C@@H]1O` [TAK243], the protein ubiquitination entry in the test on stress granule proteins is given as “undermined or inhibited”. For the same molecule, the granule disassembly result in the test on stress granules is given as “delayed”.

For the origin of these results see patent US20260194528A1, “PROXIMITY-BASED LABELING OF BIOMOLECULAR CONDENSATE MICROENVIRONMENTS” (THE TRUSTEES OF PRINCETON UNIVERSITY, priority 2022, published 2026).
